Laboratory results taken from BindingDB's records for patent US11225492 (Hangzhou Innogate Pharma Co., Ltd., 2022).

Molecular target: Cyclin-dependent kinase 6 (Homo sapiens, UniProt Q00534)
Test: Kinase Assay
Experimental: CDK2/CycA2 and CDK6/cycD3 were assayed under buffer conditions in the presence of 50 mM HEPES (pH 7.5), 10 mM MgCl2, 0.0015% Brij-35, and 2 mM dithiothreitol, CDK4/CycD3 with buffer condition of 20 mM HEPES (pH 7.5), 10 mM MgCl2, 0.01% Triton X-100, and 2 mM dithiothreitol. Prepare compounds to 50× of the final desired highest inhibitor concentration by 100% DMSO and serial dilution in 3-fold for total of 10 concentrations. […] After assay for 60 min, 180 min, 60 min respectively at 28° C., reactions were terminated with stop solution (50 mM EDTA, 0.015% Brij-35, 0.2% Coating Reagent #3 and 100 mM HEPES (pH 7.5)). Collect conversion on Caliper EZ Reader.

Chain of Cyclin-dependent kinase 6 (Q00534 whole entry): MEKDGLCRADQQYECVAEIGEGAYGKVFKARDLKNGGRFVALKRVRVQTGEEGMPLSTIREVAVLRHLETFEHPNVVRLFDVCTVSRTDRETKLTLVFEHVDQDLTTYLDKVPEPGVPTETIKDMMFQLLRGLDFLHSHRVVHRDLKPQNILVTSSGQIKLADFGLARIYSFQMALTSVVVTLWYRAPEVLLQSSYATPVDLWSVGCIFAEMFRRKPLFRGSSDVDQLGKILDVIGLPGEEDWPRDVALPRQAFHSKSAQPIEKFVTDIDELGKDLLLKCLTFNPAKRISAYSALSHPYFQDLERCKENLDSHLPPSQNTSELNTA

Structure (SMILES) | IC50
CC(=O)c1c(C)c2cnc(Nc3ccc4c(c3)OC[C@H]3CNCCN43)nc2n(C2CCCC2)c1=O [US11225492, Compound 7R] | < 25 nM
CC(=O)c1c(C)c2cnc(Nc3ccc4c(c3)OC[C@@H]3CNCCN43)nc2n(C2CCCC2)c1=O [US11225492, Compound 7S] | < 25 nM
CC(=O)c1c(C)c2cnc(Nc3ccc4c(c3)OCC3CNCCN43)nc2n(C2CCCC2)c1=O (racemic) [US11225492, Compound 7] | < 25 nM
